Type in all cases: in vivo
Series [1] relates to Scirpus juncoides. As to the kind of experiment: Test Example 1: herbicidal activity, application before weed generation in submerged conditions (symbol B). To be noted: application herbicide amount 320 g/ha. Summed up: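 In a flooded pot test with alluvial soil, the emulsion-formulated compound was diluted with water to a predetermined amount and applied to the floodwater immediately on the sowing day. Pots were held in a greenhouse at 25–30 °C for 3 weeks before each weed was rated.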

Series [2] has as its system Echinochloa oryzacola Vasing. Briefly: Test Example 2: herbicidal activity, application during weed generation in submerged conditions (symbol A). The following applies: Table 23; application herbicide amount 320 g/ha; grade 0-5 by criteria of Test Example 1. In a few lines:
(§1)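 Steps: fill pots with alluvial soil; add water to 4 cm depth; co-sow the three weeds; grow at 25° C. to 30° C. under glass; at 1–2 leaves, dose the floodwater with diluted emulsion; rate damage visually after 3 weeks.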

The subject of series [3] is soybean. Briefly: Test Example 5: effect on crop by foliage application, plastic box (symbol d). The following applies: 320 g/ha, 3 weeks after application. Summed up: (§2)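 Box culture: sterile diluvial soil, seeds spot-sown, ~1.5 cm cover, raised under glass at 25–30° C.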
In series [4] the test system is Cyperus difformis. Briefly: Test Example 3: herbicidal effect by foliage application, Wagner pot (symbol E). The following applies: application herbicide amount 320 g/ha; for E herbicidal effect grade: Table 24. Summed up: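 Post-emergence, paddy-type test: seedlings 14 d old in shallow-flooded (0.1–0.5 cm) alluvial soil, 25–30 °C greenhouse. Emulsion diluted to target rate, sprayed on leaves. Read-out: visual effect on each species at 3 weeks, per set criteria.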

Series [5] relates to Amaranthus retroflexus. Briefly: Test Example 5: herbicidal effect by foliage application, plastic box (symbol N). The following applies: 320 g/ha, 3 weeks after application. In a few lines: (§3)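 Greenhouse foliar test: seedlings at 14 days, grown 25° C. to 30° C. in sterilized diluvial soil; compound applied as an aqueous dilution of an emulsion; response read 3 weeks after spraying.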

The subject of series [6] is Veronica persica. As to the kind of experiment: Test Example 5: herbicidal effect by foliage application, plastic box (symbol R). The following applies: 320 g/ha, 3 weeks after application. Summed up:
as §3

In series [7] the test system is Scirpus juncoides. As to the kind of experiment: Test Example 2: herbicidal activity, application during weed generation in submerged conditions (symbol B). To be noted: Table 23; application herbicide amount 320 g/ha; grade 0-5 by criteria of Test Example 1. Summed up: as §1
The test system of series [8] is Stellaria media. As to the kind of experiment: Test Example 4: herbicidal effect by soil treatment (symbol P). To be noted: application herbicide amount 320 g/ha. In a few lines: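 Seeds were sown in sterilized diluvial soil, covered with about 1.5 cm of soil, and the soil surface was sprayed with a water-diluted emulsion of the compound at a predetermined rate. Plants grew in a greenhouse at 25° C. to 30° C.; effects were scored visually 3 weeks after application.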

Series [9] relates to rice plant. Briefly: Test Example 5: effect on crop by foliage application, plastic box (symbol b). The following applies: 320 g/ha, 3 weeks after application. In a few lines: as §2
The test system of series [10] is wheat. Briefly: Test Example 5: effect on crop by foliage application, plastic box (symbol e). To be noted: 320 g/ha, 3 weeks after application. In a few lines:
as §2

Series [11] deals with Galium spurium. Briefly: Test Example 5: herbicidal effect by foliage application, plastic box (symbol Q). To be noted: 320 g/ha, 3 weeks after application. Summed up:
as §3

Series [12] concerns corn. Briefly: Test Example 4: effect on crop by soil treatment (symbol c). The following applies: application herbicide amount 320 g/ha. In a few lines:
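Soil-treatment setup: crop and weed seeds were spot-sown into sterilized diluvial soil, then buried beneath approximately 1.5 cm of it, and the boxes were housed in a 25–30° C. greenhouse.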

As for `CON=C(C)C(=NOC)C1CC(O)=C(c2c(C)cc(C)cc2C)C1=O` (stereo not drawn) [8-003], the “Herbicidal effect grade, B: Scirpus juncoides” value (shortened to “Herbicidal effect grade, B”) in series [1] and in [7] was 0 (Herbicidal ratio of 5% or lower (almost no effect)) throughout. For the same molecule, in series [2], the “Herbicidal effect grade, A: Echinochloa oryzacola Vasing.” value is 0 (Herbicidal ratio of 5% or lower (almost no effect)). Further, the “d: soybean, effect on crop grade” value in series [3] is recorded as 0 (Herbicidal ratio of 5% or lower (almost no effect)). For the same molecule, in [4], the “E herbicidal effect grade” value was 0 (Herbicidal ratio of 5% or lower (almost no effect)). In addition, the “N: Amaranthus retroflexus, herbicidal effect grade” value in series [5] is 0 (Herbicidal ratio of 5% or lower (almost no effect)). Also, the “R: Veronica persica, herbicidal effect grade” value in series [6] was 0 (Herbicidal ratio of 5% or lower (almost no effect)). In addition, in series [8], the “Herbicidal effect grade, P: Stellaria media” value is 0 (Herbicidal ratio of 5% or lower (almost no effect)). In addition, in series [9], the “b: directly sowed rice plant, effect on crop grade” value was 0 (Herbicidal ratio of 5% or lower (almost no effect)). In addition, the “e: wheat, effect on crop grade” value in series [10] was 0 (Herbicidal ratio of 5% or lower (almost no effect)). In addition, the “Q: Galium spurium, herbicidal effect grade” value in series [11] is 0 (Herbicidal ratio of 5% or lower (almost no effect)). Besides, in series [12], the “Effect on crop grade, c: corn” value is given as 0 (Herbicidal ratio of 5% or lower (almost no effect)).

In the case of `COc1cc(Br)cc(C)c1C1=C(O)CC(CC(C)=O)C1=O` (stereo not drawn) [7-027, 2-(4-bromo-2-methoxy-6-methylphenyl)-3-hydroxy-5-(2-oxopropyl)cyclopent-2-enone], the “Herbicidal effect grade, B” value in series [1] and in series [7] was 0 (Herbicidal ratio of 5% or lower (almost no effect)) in each case. In addition, the “Herbicidal effect grade, A: Echinochloa oryzacola Vasing.” value in [2] is 3 (Herbicidal ratio of 40% or higher and lower than 70%). Further, the “d: soybean, effect on crop (criteria of Test Example 1)” value in series [3] was 0 (Herbicidal ratio of 5% or lower (almost no effect)). The “E herbicidal effect grade” value in [4] was 4 (Herbicidal ratio of 70% or higher and lower than 90%). For the same molecule, in [5], the “N: Amaranthus retroflexus, herbicidal effect (criteria of Test Example 1)” value is recorded as 0 (Herbicidal ratio of 5% or lower (almost no effect)). Moreover, the “R: Veronica persica, herbicidal effect (criteria of Test Example 1)” value in series [6] is recorded as 0 (Herbicidal ratio of 5% or lower (almost no effect)). The “Herbicidal effect grade, P: Stellaria media” value in [8] is reported as 0 (Herbicidal ratio of 5% or lower (almost no effect)). Also, the “b: directly sowed rice plant, effect on crop (criteria of Test Example 1)” value in series [9] is 3 (Herbicidal ratio of 40% or higher and lower than 70%). In addition, the “e: wheat, effect on crop (criteria of Test Example 1)” value in series [10] was 0 (Herbicidal ratio of 5% or lower (almost no effect)). In addition, the “Q: Galium spurium, herbicidal effect (criteria of Test Example 1)” value in series [11] is listed as 0 (Herbicidal ratio of 5% or lower (almost no effect)). For the same molecule, the “Effect on crop grade, c: corn” value in [12] is 3 (Herbicidal ratio of 40% or higher and lower than 70%).

As to `COC(=O)CON=C(C)CC1CC(O)=C(c2c(C)cc(C)cc2C)C1=O` (stereo not drawn) [1-023], the “Herbicidal effect grade, B” value in [1] and in series [7] was 0 (Herbicidal ratio of 5% or lower (almost no effect)) in each case. In series [2], the “Herbicidal effect grade, A: Echinochloa oryzacola Vasing.” value was 4 (Herbicidal ratio of 70% or higher and lower than 90%). Besides, the “d: soybean, effect on crop grade” value in [3] was 0 (Herbicidal ratio of 5% or lower (almost no effect)). The “herbicidal effect on E, grade 0-5” value in series [4] is on record as 0 (Herbicidal ratio of 5% or lower (almost no effect)). Also, the “N: Amaranthus retroflexus, herbicidal effect grade” value in series [5] is listed as 0 (Herbicidal ratio of 5% or lower (almost no effect)). Moreover, in [6], the “R: Veronica persica, herbicidal effect grade” value was 0 (Herbicidal ratio of 5% or lower (almost no effect)). Moreover, the “P (Stellaria media) herbicidal effect grade” value in series [8] is recorded as 0 (Herbicidal ratio of 5% or lower (almost no effect)). In addition, in series [9], the “b: directly sowed rice plant, effect on crop grade” value is 4 (Herbicidal ratio of 70% or higher and lower than 90%). Moreover, the “e: wheat, effect on crop grade” value in series [10] is 0 (Herbicidal ratio of 5% or lower (almost no effect)). Further, the “Q: Galium spurium, herbicidal effect grade” value in series [11] was 2 (Herbicidal ratio of 20% or higher and lower than 40%). The “c (corn) effect on crop grade” value in series [12] is recorded as 0 (Herbicidal ratio of 5% or lower (almost no effect)).

Regarding `CON=C(C)CC1CC(OS(=O)(=O)N(C)C)=C(c2c(C)cc(-c3ccc(F)cc3)cc2C)C1=O` (mixture of isomers) [6-060], the “Herbicidal effect grade, B” value was 5 (Herbicidal ratio of 90% or more (almost completely withered)) in [1]; 4 (Herbicidal ratio of 70% or higher and lower than 90%) in series [7]. In [2], the “Herbicidal effect grade, A: Echinochloa oryzacola Vasing.” value is given as 5 (Herbicidal ratio of 90% or more (almost completely withered)). Further, in [3], the “d: soybean, effect on crop (criteria of Test Example 1)” value is 1 (Herbicidal ratio of 5% or higher and lower than 20%). For the same molecule, the “herbicidal effect on E, grade 0-5” value in [4] is 5 (Herbicidal ratio of 90% or more (almost completely withered)). For the same molecule, the “N: Amaranthus retroflexus, herbicidal effect (criteria of Test Example 1)” value in series [5] was 4 (Herbicidal ratio of 70% or higher and lower than 90%). Also, in [6], the “R: Veronica persica, herbicidal effect (criteria of Test Example 1)” value is 4 (Herbicidal ratio of 70% or higher and lower than 90%). In addition, the “P: Stellaria media, herbicidal effect grade” value in series [8] was 0 (Herbicidal ratio of 5% or lower (almost no effect)). The “b: directly sowed rice plant, effect on crop (criteria of Test Example 1)” value in series [9] is 5 (Herbicidal ratio of 90% or more (almost completely withered)). For the same molecule, the “e: wheat, effect on crop (criteria of Test Example 1)” value in series [10] was 4 (Herbicidal ratio of 70% or higher and lower than 90%). Further, the “Q: Galium spurium, herbicidal effect (criteria of Test Example 1)” value in series [11] is 4 (Herbicidal ratio of 70% or higher and lower than 90%). For the same molecule, the “c: corn, effect on crop grade” value in series [12] is 0 (Herbicidal ratio of 5% or lower (almost no effect)).

For `CON=C(C)CC1CC(OC(=O)CCCC(C)=O)=C(c2c(C)cc(-c3ccc(Cl)cc3)cc2C)C1=O` (stereo not drawn) [6-080], the “Herbicidal effect grade, B” value in series [1] was 1 (Herbicidal ratio of 5% or higher and lower than 20%); in series [7], 4 (Herbicidal ratio of 70% or higher and lower than 90%). Also, the “Herbicidal effect grade, A: Echinochloa oryzacola Vasing.” value in [2] was 5 (Herbicidal ratio of 90% or more (almost completely withered)). Besides, the “d: soybean, effect on crop (criteria of Test Example 1)” value in series [3] was 1 (Herbicidal ratio of 5% or higher and lower than 20%). Also, the “herbicidal effect on E, grade 0-5” value in [4] is listed as 5 (Herbicidal ratio of 90% or more (almost completely withered)). The “N: Amaranthus retroflexus, herbicidal effect (criteria of Test Example 1)” value in series [5] is reported as 0 (Herbicidal ratio of 5% or lower (almost no effect)). The “R: Veronica persica, herbicidal effect (criteria of Test Example 1)” value in [6] was 4 (Herbicidal ratio of 70% or higher and lower than 90%). Moreover, in series [8], the “P: Stellaria media, herbicidal effect grade” value is listed as 0 (Herbicidal ratio of 5% or lower (almost no effect)). For the same molecule, in series [9], the “b: directly sowed rice plant, effect on crop (criteria of Test Example 1)” value is 5 (Herbicidal ratio of 90% or more (almost completely withered)). Also, the “e: wheat, effect on crop (criteria of Test Example 1)” value in series [10] is given as 5 (Herbicidal ratio of 90% or more (almost completely withered)). Further, the “Q: Galium spurium, herbicidal effect (criteria of Test Example 1)” value in series [11] was 4 (Herbicidal ratio of 70% or higher and lower than 90%). Besides, in [12], the “c: corn, effect on crop grade” value is 0 (Herbicidal ratio of 5% or lower (almost no effect)).

Regarding `CON=C(C)CC1CC(O)=C(c2c(C)cc(-c3ccc(F)cc3)cc2C)C1=O` (mixture of isomers) [6-058], the “Herbicidal effect grade, B” value in [1] and in [7] was 5 (Herbicidal ratio of 90% or more (almost completely withered)) in each case. Further, in [2], the “Herbicidal effect grade, A: Echinochloa oryzacola Vasing.” value is 5 (Herbicidal ratio of 90% or more (almost completely withered)). The “d: soybean, effect on crop (criteria of Test Example 1)” value in series [3] was 2 (Herbicidal ratio of 20% or higher and lower than 40%). Further, the “herbicidal effect on E, grade 0-5” value in series [4] is given as 5 (Herbicidal ratio of 90% or more (almost completely withered)). The “N: Amaranthus retroflexus, herbicidal effect (criteria of Test Example 1)” value in [5] is 5 (Herbicidal ratio of 90% or more (almost completely withered)). In addition, in [6], the “R: Veronica persica, herbicidal effect (criteria of Test Example 1)” value is given as 5 (Herbicidal ratio of 90% or more (almost completely withered)). In series [8], the “P: Stellaria media, herbicidal effect grade” value was 5 (Herbicidal ratio of 90% or more (almost completely withered)). The “b: directly sowed rice plant, effect on crop (criteria of Test Example 1)” value in series [9] is reported as 5 (Herbicidal ratio of 90% or more (almost completely withered)). In addition, the “e: wheat, effect on crop (criteria of Test Example 1)” value in series [10] was 5 (Herbicidal ratio of 90% or more (almost completely withered)). In addition, the “Q: Galium spurium, herbicidal effect (criteria of Test Example 1)” value in series [11] was 5 (Herbicidal ratio of 90% or more (almost completely withered)). Moreover, the “c: corn, effect on crop grade” value in series [12] is 5 (Herbicidal ratio of 90% or more (almost completely withered)).
